These results are taken from US20260274910A1, “SINGLE FUSION PROTEIN AND PHARMACEUTICAL COMPOSITION” (MEDI&GENE INC., priority 2023, published 2026).

One data set has as its system cAMP (cyclic AMP). Nature of the data set: cAMP level (hTRF) in undifferentiated 3T3-L1 cells. The note with it: undifferentiated 3T3-L1, 100 nM with 0.5 mM IBMX, 30 minutes; compared with Control and SEQ ID NO: 5. The format is cell-based, mouse. On the procedure:
(§1) To observe the functionality of the fusion proteins related to lipid metabolism, the 3T3-L1 mouse pre-adipocyte cell line was used as the cell line itself (undifferentiated) or by differentiating into adipocytes. Differentiation into the adipocytes was performed by inducing primary differentiation for the 3T3-L1 cells in a medium containing DMEM, 10% FBS, 10 μg/ml insulin, 0.5 mM IBMX (3-Isobutyl-1-methylxanthine), and 1 μM dexamethasone for 2 days, and inducing secondary differentiation with a medium containing DMEM, 10% FBS, and 10 μg/ml insulin for the remaining 4 days. The adipocytes in which differentiation was finally completed were treated with the test substances at a concentration of 100 nM for 30 hours (Control: PBS) and then used for each test.
Next, changes in cAMP (cyclic AMP), a signaling mediator contributing to lipolysis and energy metabolism were evaluated in the undifferentiated adipocytes. The undifferentiated cells were treated with the test substances at a concentration of 100 nM (Control: PBS) with 0.5 mM IBMX for 30 minutes. Thereafter, the level of cAMP was evaluated by the hTRF (Homogeneous Time Resolved Fluorescence) method (using CAMP Gs dynamic kit from Cisbio). As a result of the measurement, it was confirmed that the level of cAMP was higher in the groups treated with the fusion proteins (SEQ ID NOs: 1, 2, 3, 7, 13, 14, 15) and shortened sequences (sequences 9, 10, 11) compared with the Control and His tag-wild-type substance (1-81) (SEQ ID NO: 5) (FIG. 7).

The test system of data set [1] is Akt and S6 (phosphorylation, p-Akt/p-S6) in C2C12 mouse skeletal muscle cell line. Nature of the data set: Akt and S6 phosphorylation (western blot) in C2C12 muscle cells. The format is cell-based. The note with it: 2 hours. The procedure:
In order to evaluate functions related to muscle loss diseases, each test substance was treated to the undifferentiated C2C12 mouse skeletal muscle cell line (mouse myoblast cell line) or the cell line in which differentiation into myotubes was completed. Differentiation of the cell line into myotubes was performed by conducting addition of 2% horse serum to culture medium and replacement with new medium every two days for a total of 4 days.
To the undifferentiated or differentiated cell lines, the test substances, fusion proteins (SEQ ID NOs: 1, 2, 3, 7, 14 and 15) were treated at a concentration of 100 nM (Control: PBS treated group) for 2 hours. Thereafter, the cells were immediately washed once and the cells were lysed with RIPA buffer (Radioimmunoprecipitation assay buffer). The activity of Akt and S6 (phosphorylation, p-Akt/p-S6) was observed by western blot. Akt phosphorylation is a well-known marker of activation of cell signaling pathways, and is an indicator of beneficial effects on muscle cells such as promotion of glucose metabolism and promotion of muscle biosynthesis. Similarly, S6 phosphorylation is a well-known marker of mTOR activity, and the activity of mTOR is an indicator showing muscle biosynthesis and various cell signaling pathways.

The subject of data set [2] is diet-induced obesity-induced impaired glucose tolerance mice. Nature of the data set: Diet-induced obesity-induced impaired glucose tolerance model (glucose tolerance test). The settings on record: 5.0 mg/kg 1 hour before intraperitoneal 20% glucose, after 8 hours fasting. In kind it is in vivo, C57BL/6N mice. The procedure: In order to secure an impaired glucose tolerance model, conditions causing glucose metabolic disorders in mice by diet-induced obesity were designed. As an animal model, 5-week-old male C57BL/6N mice were obtained and after undergoing an acclimation period by providing a normal diet for 1 week, they were used, and the housing conditions were maintained at 18~24° C., 50~60% humidity, and ad libitum feeding with free access to feed and water was carried out during both the acclimation period and experimental period.
In order to induce impaired glucose tolerance to the mice which had undergone the acclimation period of 1 week, a high-fat diet was supplied to induce obesity. The high-fat diet was provided by preparing as Table 10 below.
The obesity-induced mice were divided into a control group (negative control group; n=14) and an experimental group (fusion protein SEQ ID NOs: 14, 15; No. 14: n=9, No. 15: n=9) and subjected to fasting for 8 hours. Thereafter, PBS to the control, and the fusion protein to the experimental group were administered at a concentration of 5.0 mg/kg, and after 1 hours, a 20% glucose solution was intraperitoneally injected. Blood was collected at each time point and analyzed using a glucometer.

Data set [3] deals with follicular cells (dermal papilla cells). Nature of the data set: Follicular cell proliferation by MTT assay. In kind it is cell-based. The note with it: 100 nM, 24 hours; compared with Control (PBS). The procedure: Whether the test substances of the present invention has effects on preventing hair loss or promoting hair growth was evaluated as follows. Specifically, it was observed whether they have efficacy of improving loss of follicular cells in scalp tissue which is a cause of hair loss, or hair growth due to an increase in hair follicles, by using dermal papilla cells and evaluating cell proliferation of follicular cells.
The follicular cells were treated with each test substance 100 nM (control: PBS) for 24 hours, and the degree of cell proliferation was evaluated by MTT assay.

Data set [4] concerns sciatic nerve transection mouse model. The experiment in a line: Sciatic nerve transection muscle atrophy model. The format is in vivo, C57BL/6 male mice. The note with it: versus control; for Grip strength: 5.0 mg/kg subcutaneous 6 times a week for 9 weeks; for Muscle mass (DXA assay): 5.0 mg/kg subcutaneous 6 times a week, fourth week. The procedure: The effects of the test substances on muscle diseases accompanied by muscle loss were evaluated using a sciatic nerve transection mouse model.
In the sciatic nerve transection mouse model, muscle atrophy was induced as follows. The thigh muscles of C57BL/6 male mice were transversely incised to expose sciatic nerves, and then the sciatic nerves were transected to weaken the nerves in the muscle tissue and induce muscle atrophy. The incised site was sutured, and a recovery period of one week was provided after the surgery.
To each mouse after the recovery period, the test substance (Control-PBS; and fusion protein) assigned to each group was subcutaneously injected at a concentration of 5.0 mg/kg 6 times a week for 9 weeks (Control: n=8, No. 13: n=9, No. 14: n=9, No. 15: n=8). The effects of improving muscle loss were measured with an X-ray body composition analyzer (DXA assay) in the fourth week of test substance administration, and the effects of improving muscle function was compared by measuring grip strength.

Data set [5] concerns MDA-MB-231 triple-negative breast cancer cell line. The experiment in a line: MTT cell viability in breast cancer cells. The format is cell-based. The settings on record: 1 μM, 48 hours; compared with Control (PBS), SEQ ID NO: 4 and SEQ ID NO: 5. The procedure: Next, the test substances, the fusion proteins (SEQ ID NO: 1, 2, 3, 7, 14, 15) and shortened sequences (SEQ ID NOs: 9, 10, 11, 12) were treated to MDA-MB-231 triple-negative breast cancer cell line at a concentration of 1 μM (Control: PBS) for 48 hours. Thereafter, the cells were washed with PBS once, and the cells were suspended in serum-free buffer. The MTT (3-[4,5-dimethylthiazol-2-yl]-2,5-diphenyltetrazolium bromide) substance was added thereto at 0.5 mg/ml and incubated at 37° C. for 2 hours. Then, they were washed with PBS once, and the cells were lysed with DMSO for 15 minutes. The solution was transferred to a new plate and the absorbance was measured at 590 nm using a microplate reader.

In a further data set the test system is MDA-MB-231 cell line. Nature of the data set: Reactive oxygen generation (DCF-FA) in breast cancer cells. The format is cell-based. The settings on record: 1 μM, 24 hours; compared with Control and SEQ ID NO: 5. The procedure:
In addition, in order to examine generation of reactive oxygen that plays an important role in cancer cell death, each test substance was treated to the MDA-MB-231 cell line at a concentration of 1 μM (Control: PBS) for 24 hours. Then, the cells were stained with DCF-FA and their fluorescence values were observed and compared at 485/535 nm.

The nature of data set [6]: Half-life in mice, NIR dye-conjugated substance, plasma fluorescence.
Method: For evaluation, ten-week-old C57BL/6 mice were used, and the mice were reared in a specialized animal facility which provided a normal diet and a 12/12 hour night/day cycle and then used for experimentation.
The synthetic peptide (SEQ ID NO: 8) and fusion protein (SEQ ID NO: 13) were each injected into the mice at a concentration of 2.5 mg/kg, and blood was collected at 0, 0.5, 2, 4, 24 hours after injection. The collected blood was centrifuged and the obtained plasma was analyzed. At this time, in order to perform effective quantification of the substances, each substance was conjugated with Dylight 680 Near-Infrared dye (NIR) in advance prior to injection, and the finally collected blood samples were examined by observing fluorescent signals with a SpectraMax i3 microplate reader device.
In another data set the test system is plasma proteins. The experiment in a line: Plasma protein binding test (PPB). In kind it is in vitro ADME, mice. The note with it: mouse plasma, 5 uM, 37° C., 4 hours, 100 kD filter, western blot. The procedure:
Such an increase in half-life was further confirmed by measuring plasma protein binding rates (Plasma protein binding test, PPB). […] Each of the plasma of the mice and the fusion protein (SEQ ID NO: 13), and or His tag-wild-type substance (1-81) (SEQ ID NO: 5) was incubated at a concentration of 5 uM at 37° C. for 4 hours. After that, they were centrifuged with a 100 kD filter to obtain fractions of the substance bound to the plasma proteins or fractions of the unbound substance. Each of the obtained fractions was evaluated by western blot.

The subject of another data set is 3T3-L1 adipocytes. The experiment in a line: Lipid droplet analysis (BODIPY 493/503, confocal) in 3T3-L1 adipocytes. The settings on record: differentiated 3T3-L1 adipocytes, 100 nM, 30 hours. In kind it is cell-based, mouse. The procedure: as §1
In addition, lipid droplets of adipocytes were stained with BODIPY 493/503 dye sample, and then confocal image scanning was performed to analyze the size and diameter of the lipid droplets.

In data set [7] the test system is UCP-1 (uncoupling protein 1). Nature of the data set: UCP-1 expression (RT-PCR) in differentiated 3T3-L1 adipocytes. The format is cell-based, mouse. The settings on record: 100 nM, 30 hours. On the procedure:
as §1
UCP-1 (uncoupling protein 1) is a representative biomarker related to thermogenesis, indicating browning and energy metabolism activation of adipocytes. In order to observe changes in expression of UCP-1 mRNA and protein by treatment of the fusion proteins, mRNA and protein were isolated from the cells treated with each test substance and RT-PCR and western blot were performed.

Where [8] appears, read: Table 6, C2C12, 100 nM, differentiation state not given.

Turning to “SEQ ID NO: 15: Recombinant protein: Shortened substance (1-47)-Shortened linker-Fc fusion”, the “Level of cAMP” value in the data set with cAMP (cyclic AMP) was “higher”. For the same substance, in data set [1] (setting [8]), the “Activity (% increase compared to control) Akt” value came out at 548% and the “Activity (% increase compared to control) S6” value came to 232%. For the same substance, the “Activity of Akt and S6 compared with control and His tag-wild-type substance (SEQ ID NO: 5)” value in data set [1] (differentiated cell line, 100 nM) is listed as “significantly higher activity”. Further, the “Blood glucose variation over time (GLUAUC) compared with the control group” value in data set [2] was “significant difference”. Further, in data set [3], the “Cell viability (MTT, cell proliferation)” value is “significantly increased”. In [4], the Grip strength result is given as “higher performance” and the “Muscle mass (DXA assay)” value was “significantly increased”. Further, the “Cell viability (MTT)” value in [5] is “significantly low”. In the data set on MDA-MB-231 cell line, the Reactive oxygen generation entry is on record as “generated higher”.
Consider “SEQ ID NO: 13: Recombinant protein: Wild-type substance (1-81)-Shortened linker-Fc fusion”, for which, in [6] (2.5 mg/kg), the “Half-life increase of fusion protein versus synthetic peptide (SEQ ID NO: 8)” value was “approximately 11.8 times”. In [6] (injected at 2.5 mg/kg, Dylight 680 NIR-conjugated, plasma at 0, 0.5, 2, 4, 24 hours), this substance returned a Half-life of 18.9 h. Also, the “Binding rate with the plasma proteins” value in the data set on plasma proteins came to 74%. Also, the “Level of cAMP” value in the data set on cAMP (cyclic AMP) is “higher”. In the data set with 3T3-L1 adipocytes, the Lipid droplet size entry is recorded as “reduced at a significant level”, the “Maximum lipid droplet diameter per cell” value is reported as “reduced at a significant level” and the “Total lipid droplet area” value is “reduced at a significant level”. In addition, the “Cell viability (MTT, cell proliferation)” value in [3] was “significantly increased”. For the same substance, the “mRNA level of UCP-1” value in data set [7] is “significantly increased”. In [4], the Grip strength result was “higher performance” and the “Muscle mass (DXA assay)” value was “significantly increased”. Besides, the Reactive oxygen generation entry in the data set with MDA-MB-231 cell line is recorded as “generated higher”.
